Measurements: patent US20190242876A1, “GENETICALLY ENCODED CELL DEATH INDICATORS AND METHODS OF USE” (The J. David Gladstone Institutes, A Testamentary Trust …, priority 2016, published 2019)

Experiments:
Rat primary neurons [1] = test: KCl membrane depolarization of neurons expressing RGEDI-P2A-EGFP; type: cell-based; conditions: 10 mM KCl (FIG. 21D)
Experimental: FIG. 21A depicts representative images of individual neurons over the time course. […] Next, the RGEDI intensity was plotted as a percentage increase from baseline (t=0) (ie delta RGEDI/baseline RGEDI). Using the morphology as a readout, the time of death was determined for each neuron. […] FIG. 21D.

[2] = system: motor neurons of zebrafish larvae; test: Targeted neuronal ablation with MTZ in nitroreductase-expressing zebrafish; type: in vivo
Experimental: Briefly, zebrafish embryos were co-injected at 1-cell stage with mnx1:Gal4, UAS:GCaMP6f, and UAS:Nitroreductase-mCherry. Embryos were grown at 28.5° C. until 48 hours post fertilization (hpf), anaesthetized in tricaine, embedded in low-melting point agarose, and then imaged on a spinning disk confocal microscope. Images were acquired of the same motor neurons within the zebrafish at 0, 24 hours, and 48 hours after MTZ or DMSO was added to the media. Intensity of GCaMP6f was plotted as the change in fluorescence intensity from time point 0.
The GEDI reporter was also tested in skeletal muscle fiber. FIG. 13C. […] FIGS. 14A, 14B, and 22.

Rat primary neurons [3] = test: RGEDI/EGFP ratio after NaN3-induced acute death of neurons; type: cell-based
Experimental: ANOVA Tukey's ***p<0.001, ns=not significant.
Rat primary neurons were transfected with hsyn1:RGEDI-P2A-EGFP as described above and imaged at DIV10. […] A non-linear regression was fit to the NaN3+Ca^2+ time course and a half-life of RGEDI/EGFP signal increase was determined to be 5 minutes and 50 seconds. […] ANOVA Tukey comparison to 0 minutes of each condition, *** p<0.001, **** p<0.0001. […] FIG. 3.

[4] = system: rat primary cortical neurons; test: Glutamate exposure of neurons expressing RGEDI, survival by GEDI ratio; type: cell-based; conditions: within three hours of glutamate exposure
Description: Briefly, neurons expressing RGEDI were exposed to the neurotransmitter glutamate. […] Furthermore, features of neurons such as neurite area were identified as associated with neurons that are resistant to high Glutamate exposure. These studies indicate that GEDIs can be used for screening for drug resistant or drug sensitive cells and identifying physiological characteristics of those cells that may underlie their sensitivity or resistance.

[5] = system: rat primary cortical neurons; test: Toxicity of neurodegenerative disease proteins in neurons, cumulative hazard from GEDI ratio; type: cell-based; conditions: automated GEDI ratio, 8 time points
Experimental: Rat primary cortical neuron cultures were prepared from embryos (embryonic day 16-18) and co-transfected using Lipofectamine2000 (ThermoFisher Scientific, Carlsbad, Calif., USA) with 150 ng/well of hSyn1:mRuby-P2a-GCaMP (Addgene #50943) and either Htt^ex1-Q27 or Htt^ex1-Q97 (known to induce neurodegeneration) in a 96-well format. […] FIG. 17A. The GCaMP intensity was detected and plotted as a percentage increase from baseline (t=0) (i.e., delta GCaMP/baseline GCaMP). Using the morphology as a readout, the time of death was determined for each neuron.
To examine the changes in signal increase as a cell dies, rat primary cortical neurons expressing GCaMP6f, mRuby, and HttEx1-Q97 were examined overtime. […] Using time lapse imaging, it was observed that 0 out of 94,106 dead rat primary cortical neurons examined regenerated after elevated GEDI signal, indicating elevated GEDI signal is terminal. In addition, the ratio of GCaMP6f/mRuby signal from rat primary cortical neurons expressing HttEx1-Q97 and HttEx1-Q25 at 0, 24, 48, 72, 96, and 120 hours post transfection was determined. FIG. 1B, the horizontal line at 0.75 separates dead from live neurons. […] Similarly, human motor neurons differentiated from induced pluripotent stem cells were transfected with […] hSyn1:mRuby-P2a-GCaMP and imaged with robotic microscopy every 6 hours up to 12 hours. […]

With `[Cl-].[K+]` [KCl] the “excitation of RGEDI-P2A-EGFP signal” value (Rat primary neurons [1]) was “failed to excite”.
In the case of `Cc1ncc([N+](=O)[O-])n1CCO` [MTZ, metronidazole], the GCaMP expression ([2]; 24 and 48 hours after addition, zebrafish larvae motor neurons, NTR-mCherry) is reported as “increased” and the RGEDI-P2a-3XtagBFP signal ([2]; zebrafish neurons co-expressing NTR-mVenus, versus DMSO) is reported as “signal increased”.
For `[N-]=[N+]=[N-].[Na+]` [NaN3], the RGEDI/EGFP ratio (Rat primary neurons [3]; 2% NaN3 in NBM with ~2 mM Ca^2+, compared to saline) was “significantly increased” and the RGEDI/EGFP ratio (Rat primary neurons [3]; NaN3, neurons washed 3x and incubated in Ca2+ free PBS) was “did not show a significant increase”.
`N[C@@H](CCC(=O)O)C(=O)O` [glutamate] was tested, and the neuronal death [4] was “killed many of the cells”.
For “TDP43: neurodegenerative disease protein transfected into neurons”, the “toxicity over time compared to control (cumulative hazard)” value [5] was “increased toxicity”.
In the case of α-synuclein, the “toxicity over time compared to control (cumulative hazard)” value [5] is reported as “increased toxicity”.
